Reference: patent publication US8765389B2, “Genetic products which are differentially expressed in tumors and use thereof” (Ganymed Pharmaceuticals AG, priority 2003, dated 2014)
d = 2'-deoxy (DNA); r = 2'-OH (RNA)

Assays:
Format in all cases: cell-based, human
TPTE expression = assay: Methylation studies: induceability of TPTE expression by genomic demethylation, real-time RT-PCR; settings: 72 h, 2 μM or 10 μM
Experimental: Real-time RT-PCR analysis of the TPTE expression in the non-expressing cell lines BT549 and HCT116 following treatment of the cells with 2 μM and 10 μM 5-aza-2′-desoxycytidine, respectively, and in HCT116 cells which are deficient for DNA methyltransferase.
For investigating the induceability of TPTE expression by genomic demethylation, TPTE negative cell lines BT549 (Mamma-Ca) and HCT116 (Colon-Ca) were cultivated for 72 h with 2 μM or 10 μM 5-aza-2′-desoxycytidine. Then, the TPTE expression was quantified by means of real-time RT-PCR. Furthermore, TPTE expression was quantified in DNA methyl transferase (DNMT) deficient HCT116 cells. While DNMT1 (HCT116^DNMT1−/−) or DNMT3b (HCT116^ENMT3b−/−) deficient cells show an almost unchanged methylation pattern when compared to the parental cell line (HCT116^Par), cells in which both DNMTs have been simultaneously deleted (HCT116^DKO) are characterized by an almost complete demethylation of genomic DNA.
A quantitative real-time PCR (40 cycles, initial denaturation 15 min 95° C., 30 sec 94° C., 30 sec 62° C. and 30 sec 72° C.) was performed using specific primers (sense […] (SEQ ID NO: 823); antisense […] (SEQ ID NO: 28)) (FIG. 19). […] The ectopic expression of many known CT genes in tumors is induced by promoter demethylation. […]

TPTE mRNA = assay: Knock-down of TPTE expression in PC-3 cells using RNAi, real-time RT-PCR; settings: PC-3 cells electroporated with 1 μM siRNA, 24 hours later, quantitative real-time RT-PCR
Experimental: PC-3 cells were electroporated using 1 μM siRNA specific for TPTE. After 24 h mRNA expression was quantified by real-time RT-PCR. Non-electroporated cells and cells electroporated with DsRed siRNA served as controls.
Expression of TPTE, MS4A12, PCSC and BRCO1 was also quantified using real-time PCR, however, the PCR products were detected using SYBR-Green as reporter dye. The reporter fluorescence of SYBR-Green is suppressed in solution and the dye is only active following binding to double-stranded DNA fragments. The increase of SYBR-Green fluorescence due to the specific amplification by means of GOI-specific primers following each PCR cycle is used for quantification. Quantification of expression of the target gene is performed absolute or relative to the expression of a control gene with constant expression in the tissues to be studied. LDHC expression was calculated by means of the ΔΔ-CT method (PE Biosystems, USA), after normalizing the samples to 18s RNA as “house-keeping” gene. The reactions were carried out in duplex mixtures and determined in triplicate. The QuantiTect SYBR-Green PCR kit (Qiagen, Hilden) was used according to the manufacturer's instructions. cDNA was synthesized using the High Capacity cDNA Archive Kit (PE Biosystems, USA) and hexamer primers according to the manufacturer's information. […]

[1] = test system: PC-3 prostate carcinoma cells; assay: Boyden chamber (Transwell) migration assay of PC-3 cells after TPTE-siRNA electroporation

Row | Compound | induction of TPTE expression (TPTE expression; BT549 (Mamma-Ca) cells) | induction of TPTE expression (TPTE expression; HCT116 (Colon-Ca) cells) | decrease in TPTE expression (TPTE mRNA) | cell migration in the Boyden chamber assay ([1]; 48 h after electroporation with 1 μM TPTE-siRNA) | reduction of the migration rate ([1]; Transwell migration assay, compared to untreated cells and cells electroporated with irrelevant siRNA)
1 | Nc1ncn([C@H]2C[C@H](O)[C@@H](CO)O2)c(=O)n1 [5-aza-2′-desoxycytidine] | strong induction of TPTE expression | strong induction of TPTE expression | – | – | –
2 | TPTE-siRNA: siRNA duplex (SEQ ID NO: 826/827) targeting nucleotides 2043-2061 of the TPTE mRNA sequence (NM_013315) (chain 1 CCCUGCCACAUGUUCAUAUTT; chain 2 AUAUGAACAUGUGGCAGGGTT; sugars from the 5' end r19 d2, backbone not given here) | – | – | 70% | Relevant decrease of cell migration | 70%
